Reference: patent US20060069084A1, “Methods of inhibiting kinases” (priority 2001, published 2006)

What was measured:
Format in all cases: biochemical
Conditions in all cases: inhibit 50% of activity at 50 μM
JAK1 = target: T1, JAK1 (Homo sapiens, UniProt P23458); assay: JAK1 kinase domain capture-based ELISA kinase assay
T1 construct: The kinase domain of humanJAK1 was amplified from U937mRNA; His tag (from pFastBac HTb vector; nickel chelate purification) (N); made in house; host or cells: baculovirus; virus made in Sf9, large-scale expression in High Five insect cells
Description: (§1) For screening purposes, compounds were diluted in 96 well plates at a concentration of 50 μM or 20 μM. Plates were warmed at 37° C. for 30 minutes before assay.
The kinase domain of humanJAK1 was amplified from U937mRNA using the polymerase chain reaction with the following primers: […]
JAK1 PCR products were cloned into the pFastBac HTb expression vector (Gibco) via the Xho I and Kpn I sites. The JAK1 plasmid was then transformed into competent DH10Bac cells (Gibco), and the recombinant baculovirus produced prepared for transfection into Sf9 insect cells.
(§2) Baculovirus preparations from each of the JAK family members were infected into five litres of High Five cells (Invitrogen) grown in High Five serum free medium (Invitrogen) to a cell density of approximately 1-2×10^6 cells/ml. Cells are infected with virus at a MOI of 0.8-3.0. Cells were harvested and lysed. JAK kinase domains were purified by affinity chromatography on a Probond (Invitrogen) nickel chelate affinity column.
(§3) The biotinylated substrate biotin-EGPWLEEEEEAYGWMDF-NH2 (SEQ ID NO:9) (final concentration 5 μM) was used as substrate, and tyrosine phosphorylation was quantitated following transfer to an avidin coated ELISA plate using peroxidase-linked anti-phospho-tyrosine antibody PY20.
(§4) Inhibitors were added to the assays fifteen minutes prior to the addition of ATP. Inhibitors were added in aqueous DMSO, with DMSO concentrations never exceeding 1%.

JAK3 = target: T2, JAK3 (Homo sapiens, UniProt P52333); assay: JAK3 kinase domain capture-based ELISA kinase assay
T2 construct: The kinase domain of humanJAK3 was amplified from U937mRNA; His tag (from pFastBac HTb vector; nickel chelate purification) (N); made in house; host or cells: baculovirus; virus made in Sf9, large-scale expression in High Five insect cells
Description: as §1
The kinase domain of humanJAK3 was amplified from U937mRNA using the polymerase chain reaction with the following primers: […]
JAK3 PCR products were cloned into the pFastBac HTb expression vector (Gibco) via the Xho I and Kpn I sites. The JAK3 plasmid was then transformed into competent DH10Bac cells (Gibco), and the recombinant baculovirus produced prepared for transfection into Sf9 insect cells.
as §2, §3, §4

TYK2 = target: T3, TYK2 (Homo sapiens, UniProt P29597); assay: TYK2 kinase domain capture-based ELISA kinase assay
T3 construct: The kinase domain of humanTYK2 was amplified from A549 mRNA; His tag (from pBlueBacHis2A vector; nickel chelate purification) (N); made in house; host or cells: baculovirus; virus made in Sf9, large-scale expression in High Five insect cells
T3 sequence (P29597 897-1176 limits assumed): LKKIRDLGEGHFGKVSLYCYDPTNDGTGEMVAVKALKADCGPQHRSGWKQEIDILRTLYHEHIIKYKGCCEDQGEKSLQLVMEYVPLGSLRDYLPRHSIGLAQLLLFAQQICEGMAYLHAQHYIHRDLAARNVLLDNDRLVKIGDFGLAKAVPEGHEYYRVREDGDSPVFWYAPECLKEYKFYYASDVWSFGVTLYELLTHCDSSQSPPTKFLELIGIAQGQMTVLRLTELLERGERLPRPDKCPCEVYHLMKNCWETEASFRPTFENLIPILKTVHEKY
Description: as §1
The kinase domain of humanTYK2 was amplified from A549 mRNA using the polymerase chain reaction with the following primers: […]
TYK2 PCR products were cloned into pBlueBacHis2A (Invitrogen) via the EcoRI site. The recombinant TYK2 baculovirus produced was prepared for transfected into Sf9 insect cells.
as §2, §3, §4

JAK2 = target: T4, JAK2 (Homo sapiens, UniProt O60674); assay: JAK2 kinase domain capture-based ELISA kinase assay
T4 construct: The kinase domain of humanJAK2 was amplified from U937mRNA; His tag (from pFastBac HTc vector; nickel chelate purification) (N); made in house; host or cells: baculovirus; virus made in Sf9, large-scale expression in High Five insect cells
Description: as §1
The kinase domain of humanJAK2 was amplified from U937mRNA using the polymerase chain reaction with the following primers: […]
JAK2 PCR products were cloned into the pFastBac HTc expression vector (Gibco) via the Sal I and Not I sites. The JAK2 plasmid was then transformed into competent DH10Bac cells (Gibco), and the recombinant baculovirus produced prepared for transfection into Sf9 insect cells.
as §2, §3, §4

T4 sequence (O60674 849-1124 limits assumed): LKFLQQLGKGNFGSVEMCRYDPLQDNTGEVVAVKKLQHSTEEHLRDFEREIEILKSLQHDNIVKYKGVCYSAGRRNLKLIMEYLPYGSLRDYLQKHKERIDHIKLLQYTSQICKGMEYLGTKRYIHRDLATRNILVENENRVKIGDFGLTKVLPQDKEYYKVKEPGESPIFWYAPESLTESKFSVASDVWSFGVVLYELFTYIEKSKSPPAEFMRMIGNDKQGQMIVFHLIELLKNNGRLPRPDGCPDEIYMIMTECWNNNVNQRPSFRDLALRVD
T1 sequence (P23458 875-1153 limits assumed): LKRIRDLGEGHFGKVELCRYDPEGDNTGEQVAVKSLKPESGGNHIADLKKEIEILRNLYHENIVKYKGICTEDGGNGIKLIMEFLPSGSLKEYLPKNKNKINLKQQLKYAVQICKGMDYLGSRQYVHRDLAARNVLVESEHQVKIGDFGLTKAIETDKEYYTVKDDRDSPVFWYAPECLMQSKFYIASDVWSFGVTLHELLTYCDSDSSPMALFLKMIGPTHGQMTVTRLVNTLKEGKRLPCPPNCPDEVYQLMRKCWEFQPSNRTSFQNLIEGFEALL
T2 sequence (P52333 822-1111 limits assumed): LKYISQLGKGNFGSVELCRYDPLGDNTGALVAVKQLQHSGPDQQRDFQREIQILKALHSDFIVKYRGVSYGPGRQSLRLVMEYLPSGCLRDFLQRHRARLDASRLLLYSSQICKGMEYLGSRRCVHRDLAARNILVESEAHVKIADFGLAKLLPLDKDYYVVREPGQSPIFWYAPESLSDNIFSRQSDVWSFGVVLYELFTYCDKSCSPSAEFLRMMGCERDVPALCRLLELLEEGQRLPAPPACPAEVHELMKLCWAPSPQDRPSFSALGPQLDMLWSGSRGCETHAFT

| IC50 (JAK1; Table 6) [µM] | IC50 (JAK3; Table 6) [µM] | IC50 (TYK2; Table 6) [µM] | IC50 (JAK2; Table 6) [µM] | IC50 (JAK1; Table 3) [µM] | IC50 (JAK3; Table 3) [µM] | IC50 (TYK2; Table 3) [µM] | IC50 (JAK2; Table 3) [µM] | SMILES |
| --- | --- | --- | --- | --- | --- | --- | --- | --- |
| < 50 | > 50 | > 50 | > 50 |  |  |  |  | FC(F)C(F)(F)Oc1cccc(Nc2nc(-c3cc(C(F)(F)F)cc(C(F)(F)F)c3)cn3ccnc23)c1 |
| < 50 | < 50 | < 50 | < 50 |  |  |  |  | CCN(CCO)c1ccc(Nc2nc(-c3ccccc3)cn3ccnc23)cc1 |
| < 50 | > 50 | < 50 | < 50 |  |  |  |  | CN(C)C(=O)COc1cccc(Nc2nc(-c3ccccc3)cn3ccnc23)c1 |
| < 50 | < 50 | < 50 | < 50 |  |  |  |  | CCN(CCO)c1ccc(Nc2nc(-c3ccccc3Cl)cn3ccnc23)cc1 |
| < 50 | < 50 | < 50 | < 50 |  |  |  |  | CN(C)C(=O)COc1cccc(Nc2nc(-c3ccccc3Cl)cn3ccnc23)c1 |
| < 50 | > 50 | < 50 | < 50 |  |  |  |  | CCN(CCO)c1ccc(Nc2nc(-c3ccc(F)c(Cl)c3)cn3ccnc23)cc1 |
|  |  |  |  | < 50 | < 50 | < 50 | < 50 | Fc1ccc(-c2cncc(N3CCN(CCN4CCCC4)CC3)n2)cc1Cl [CY734702] |
|  |  |  |  | < 50 | < 50 | < 50 | < 50 | COc1cccc(-c2cccc(N3CCN(C)CC3)n2)c1 [CYT13809] |
|  |  |  |  | < 50 | < 50 | < 50 | < 50 | COc1cncc(-c2cccc(Nc3cccnc3)n2)c1 [CYT14607] |
|  |  |  |  | < 50 | < 50 | < 50 | < 50 | c1cncc(Nc2cccc(-c3ccncc3)n2)c1 [CYT14804] |
|  |  |  |  | < 50 | < 50 | < 50 | < 50 | COc1cncc(-c2cncc(NCc3cccs3)n2)c1 [CYT20303] |
|  |  |  |  | < 50 | < 50 | < 50 | < 50 | Fc1ccc(CNc2cncc(-c3cccnc3)n2)cc1 [CYT20307] |
|  |  |  |  | < 50 | < 50 | < 50 | < 50 | CC(=O)Nc1cccc(-c2cncc(NCc3cccc(Cl)c3)n2)c1 [CYT20310] |
|  |  |  |  | < 50 | < 50 | < 50 | < 50 | COc1cncc(-c2cncc(NCc3ccco3)n2)c1 [CYT20406] |
|  |  |  |  | < 50 | < 50 | < 50 | < 50 | C[C@H](Nc1cncc(-c2cccc(CO)c2)n1)c1ccccc1 [CYT20504] |
|  |  |  |  | < 50 | < 50 | < 50 | < 50 | OCc1cccc(-c2cncc(NCc3ccccc3)n2)c1 [CYT20506] |
|  |  |  |  | < 50 | < 50 | < 50 | < 50 | CC(=O)Nc1cccc(-c2cncc(N[C@@H](C)c3ccccc3)n2)c1 [CYT20508] |
|  |  |  |  | < 50 | < 50 | < 50 | < 50 | COc1cc(-c2cncc(N[C@@H](C)c3ccccc3)n2)cc(OC)c1OC [CYT20510] |
|  |  |  |  | < 50 | < 50 | < 50 | < 50 | COc1cncc(-c2cncc(NCC(C)(C)CO)n2)c1 [CYT21103] |
|  |  |  |  | < 50 | < 50 | < 50 | < 50 | COc1cc(-c2cncc(NCCc3ccncc3)n2)cc(OC)c1OC [CYT21404] |
